We go through four compounds from EP0866709B1, “1,2,4-BENZOTRIAZINE OXIDES FORMULATIONS” (priority 1995, dated 1997).

pIC50: −log10 of the molar value. Values after ≈ are worked out from the molar mass of the structure shown. Like-named read-outs stand apart in the source and are kept apart here.

The subject of data set [1] is hypoxic cells. To be noted: cited from earlier work.
The test system of data set [2] is hypoxic cells. The note with it: Human; in vitro; drug concentration required under aerobic vs. hypoxic conditions for equivalent cell killing; cited from earlier work.
The subject of data set [3] is mouse SCCVII tumors. The data set can be described thus: Tirapazamine with fractionated radiation in vivo. The note with it: multiple 0.08 mmol/kg (43 mg/m^2) doses given prior to each radiation fraction (2.5 Gy x 8).
Data set [4] has as its system mouse tumor models. In words: Tirapazamine with radiation in vivo.
Data set [5] deals with A549. The data set can be described thus: In vitro cytotoxicity under aerobic or hypoxic conditions. It is filed as cell-based. The note with it: Homo sapiens; A549 (tumor); 1-hour incubation under hypoxic conditions.
The format of data set [6] is physicochemical. The text has this:
[…]. The planar nature of the molecule would facilitate an ordered stacking with the crystal with intermolecular attractions (charge transfer interactions) between each plane via the nitrogen and oxygen of the N-oxide functions. A hydrated form of tirapazamine can exist where water molecules are hydrogen bonded to the oxygen components.

The nature of data set [7]: Degradation on refluxing in 0.1 N sodium hydroxide. It is filed as physicochemical.
In data set [8] the test system is CHO-HA-1. In words: In vitro cytotoxicity under aerobic or hypoxic conditions. It is filed as cell-based, Hamster. To be noted: CHO-HA-1 (normal); 1-hour incubation under hypoxic conditions.
Data set [9] deals with mouse tumors. The data set can be described thus: Tirapazamine alone in vivo, tumor cell kill. Further details: species or system mice. The note with it: given without radiation; typical. The source says: . When given alone in vivo in mice, tirapazamine-in single doses-would be expected to produce a relatively small cell kill corresponding to the percentage of tumor cells which are hypoxic. A number of experiments have shown this to be the case, with cell kills typically less than one log (surviving fraction ≥ 1•10^-1). For example, the maximum cell kill observed following a single does was in the SCCVII tumor (surviving fraction = 5•10^-1), and only a small tumor growth delay of 3 days was produced in the FSaIIC fibrosarcoma.
[…]. However, the lowest surviving fraction seen in four different mouse tumors was 5•10^-1, and down to 5•10^-2 in a fifth mouse tumor (RIF-1 tumor).

Data set [10] is described as follows: Solubility of tirapazamine in water and various vehicles. The data set is classed as physicochemical.
Data set [11] deals with RIF-1. The data set can be described thus: In vitro cytotoxicity under aerobic or hypoxic conditions. It is filed as cell-based. To be noted: Mus musculus; RIF-1 (tumor); 1-hour incubation under hypoxic conditions.
The test system of data set [12] is FSaIIC Murine Fibrosarcoma. To be noted: administered just before single-dose treatment with cyclophosphamide, carmustine or melphalan; cited from earlier work.
Data set [13] can be described thus: in vivo. To be noted: mouse.
Data set [14] deals with HCT-8. The data set can be described thus: In vitro cytotoxicity under aerobic or hypoxic conditions. The data set is classed as cell-based. To be noted: Homo sapiens; HCT-8 (tumor); 1-hour incubation under hypoxic conditions.
The conditions of data set [15]: phosphate buffer at pH 7.4; cited from earlier work.
In data set [16] the test system is rat. In words: Single and 2-week and 2-month multiple-dose studies. The data set is classed as in vivo. To be noted: each regimen (single, 2-week, 2-month multiple-dose). The protocol: (§1) Single and 2-week and 2-month multiple-dose studies were performed in the rat and the dog.
Data set [17] concerns dog. The description is as above. The data set is classed as in vivo. The note with it: each regimen (single, 2-week, 2-month multiple-dose). As to the method:
as §1

Data set [18] relates to SCCVII. The data set can be described thus: In vitro cytotoxicity under aerobic or hypoxic conditions. It is filed as cell-based. The note with it: Mus musculus; SCCVII (tumor); 1-hour incubation under hypoxic conditions.
Data set [19] concerns FSaIIC fibrosarcoma. The data set can be described thus: Tirapazamine alone in vivo. Further details: species or system mice. The source says: When given alone in vivo in mice, tirapazamine-in single doses-would be expected to produce a relatively small cell kill corresponding to the percentage of tumor cells which are hypoxic. A number of experiments have shown this to be the case, with cell kills typically less than one log (surviving fraction ≥ 1•10^-1). For example, the maximum cell kill observed following a single does was in the SCCVII tumor (surviving fraction = 5•10^-1), and only a small tumor growth delay of 3 days was produced in the FSaIIC fibrosarcoma.

Data set [20] can be described thus: Stress stability on storage at 50°C and 70°C after a single autoclave cycle. It is filed as physicochemical. As to the method: Formulations were also stressed by storing at elevated temperatures of 50°C and 70°C after a single autoclave cycle of 21 minutes at 121°C. […] This instability was not apparent from multiple autoclave stressing.
The clinical formulation used in chemical studies discussed later was as follows: […]

The subject of data set [21] is AG 1522. The data set can be described thus: In vitro cytotoxicity under aerobic or hypoxic conditions. The data set is classed as cell-based. The note with it: Homo sapiens; AG 1522 (normal); 1-hour incubation under hypoxic conditions.
Data set [22] deals with HT 1080. The data set is described as above. The data set is classed as cell-based. To be noted: Homo sapiens; HT 1080 (tumor); 1-hour incubation under hypoxic conditions.
Data set [23] can be described thus: Stress stability study, multiple autoclave cycles of 21 minutes at 121°C. It is filed as physicochemical. The protocol: Stress studies were conducted using multiple autoclave cycles of 21 minutes at 121°C. […] A shift in the normal saline formulation pH occurred after eight autoclave cycles from 4.5 to 4.9, therefore formulations required some degree of buffering.

The subject of data set [24] is FSaIIC fibrosarcoma. In words: Tirapazamine with chemotherapy in vivo. Further details: species or system mice. The note with it: tirapazamine 50 mg/kg IP added to cyclophosphamide (150 mg/kg IP), melphalan (10 mg/kg IP), or cisplatin (10 mg/kg IP).
Setting [25] is: Rodent, in vitro, drug concentration required under aerobic vs. hypoxic conditions for equivalent cell killing.

Regarding `COCC(O)Cn1ccnc1[N+](=O)[O-]` (centres unmarked) [Misonidazole], the “Hypoxic Cytotoxicity Ratio” value is reported as 10-15 in data set [1] (setting [25]) and 15 in data set [2].

In the case of `CN(C)CCCNc1c2ccccc2nc2cccc([N+](=O)[O-])c12` [Nitracrine], the “Hypoxic Cytotoxicity Ratio” value in data set [1] was 7.

On to `CO[C@@]12[C@H](COC(N)=O)C3=C(C(=O)C(C)=C(N)C3=O)N1C[C@H]1[C@@H]2N1C` (some centres unmarked) [Porfiromycin], for which the results for the “Hypoxic Cytotoxicity Ratio” value in data set [1] (setting [25]) and in data set [2] were 5-10 and approximately 10, respectively.

Take `Nc1n[n+]([O-])c2ccccc2[n+]1[O-]` [Tirapazamine, 1,2,4-benzotriazine-3-amine 1,4-dioxide]: in data set [3], the cures result is on record as “several cures”. Also, the “antitumor effect of tirapazamine plus radiation versus additive effect” value in data set [4] (one study) is “exceeds the additive effect of these two treatments”. Moreover, the “enhancement of the antitumor activity of radiation, compared with etanidazole” value in data set [4] (one study) is on record as “to a greater extent than did the hypoxic cell sensitizer etanidazole”. Moreover, the “effectiveness with fractionated radiation” value in data set [4] (single 0.30 mmol/kg (160mg/m^2) dose versus multiple 0.08 mmol/kg (43 mg/m^2) doses, fractionated radiation (2.5 Gy x 8)) is given as “equally effective”. Besides, the “effectiveness with single-dose radiation” value in data set [4] (single 0.30 mmol/kg (160mg/m^2) dose with a single large (20 Gy) dose of radiation) is “effective”. Further, the “antitumor activity of radiation (cell killing or tumor growth delay)” value in [4] (tumors FSaIIC, SCCVII, RIF-1, EMT6, and KHT, single- or multiple-dose schedule, single-dose or fractionated radiation) is listed as “augments the antitumor activity of radiation”. Also, the pIC50 in data set [5] is 4.82; in data set [8], 5.30; in data set [11] it was 5.52; in data set [14], 5.00; in [18], 5.40; in [21], 4.89. This compound gave a negative logarithm of the IC50 (pIC50) in data set [22] of 4.66. Moreover, the “partition coefficient (octanol/water)” value in [6] is 0.15. For the same compound, in data set [7], the Degradation entry is “complete degradation occurs after refluxing for less than four hours”. In addition, the cell kill entry in data set [9] was “less than 1 log”. Moreover, the solubility came to 1230 µg/mL (≈ 6.9 mM) in [10] (1% benzyl alcohol : 10% ethanol : 89% water, v/v, 15 °C, aqueous with cosolvent or surfactant or cyclodextrin, 1% Benzyl alcohol: 10% ethanol:89% water, v/v, 15°C); 1330 µg/mL (≈ 7.47 mM) in data set [10] (Albumin 4.5% w/v, 20 °C, plasma or biological fluid); 1710 µg/mL (≈ 9.6 mM) in [10] (Albumin 20% w/v, 20 °C, plasma or biological fluid); 1830 µg/mL (≈ 10.3 mM) in data set [10] (Dimethylformamide 25% v/v in water, 15 °C, aqueous with cosolvent or surfactant or cyclodextrin); 930 µg/mL (≈ 5.22 mM) in data set [10] (Ethanol 10% v/v in water, 15 °C, aqueous with cosolvent or surfactant or cyclodextrin); 2320 µg/mL (≈ 13 mM) in [10] (Ethanol 50% v/v in water, 15 °C, aqueous with cosolvent or surfactant or cyclodextrin). In addition, the solubility was determined as 2840 µg/mL (≈ 15.9 mM) in data set [10] (Ethanol 65% v/v in water, 15 °C, aqueous with cosolvent or surfactant or cyclodextrin); 1710 µg/mL (≈ 9.6 mM) in data set [10] (Ethanol 85% v/v in water, 15 °C, aqueous with cosolvent or surfactant or cyclodextrin); 470 µg/mL (≈ 2.64 mM) in data set [10] (Ethanol, 15 °C, organic solvent or mixture); 2930 µg/mL (≈ 16.4 mM) in [10] (Glycerol 50% v/v in water, 15 °C, aqueous with cosolvent or surfactant or cyclodextrin); 4590 µg/mL (≈ 25.8 mM) in data set [10] (Glycerol, 15 °C, organic solvent or mixture); 850 µg/mL (≈ 4.77 mM) in data set [10] (Normal Saline, 15 °C, saline or isotonic). The solubility in data set [10] (PEG 400 50% v/v in water, 15 °C, aqueous with cosolvent or surfactant or cyclodextrin) stood at 1600 µg/mL (≈ 8.98 mM); in data set [10] (PEG 400, 15 °C, organic solvent or mixture), 5120 µg/mL (≈ 28.7 mM); in data set [10] (Pluronic F68 20% w/v, 15 °C, aqueous with cosolvent or surfactant or cyclodextrin) it was 1080 µg/mL (≈ 6.06 mM); in [10] (Povidone (Kollidon 12PF) 10% w/v, 15 °C, aqueous with cosolvent or surfactant or cyclodextrin) it was 950 µg/mL (≈ 5.33 mM); in data set [10] (Propylene glycol 50% v/v in water, 15 °C, aqueous with cosolvent or surfactant or cyclodextrin), 2580 µg/mL (≈ 14.5 mM); in [10] (Propylene glycol, 15 °C, organic solvent or mixture) it was 3270 µg/mL (≈ 18.4 mM). Moreover, the solubility in data set [10] (Tween 80 0.2% w/v, 15 °C, aqueous with cosolvent or surfactant or cyclodextrin) worked out at 900 µg/mL (≈ 5.05 mM); in data set [10] (Tween 80 20% w/v, 15 °C, aqueous with cosolvent or surfactant or cyclodextrin), 1020 µg/mL (≈ 5.73 mM); in data set [10] (Water for Injections, 15 °C, water), 850 µg/mL (≈ 4.77 mM); in data set [10] (Water for Injections, 20 °C, water) it was 1430 µg/mL (≈ 8.03 mM); in data set [10] (citrate buffer 0.05 M pH 4 (isotonic), 15 °C, pH 4, aqueous buffer) it was 810 µg/mL (≈ 4.55 mM); in [10] (lactate buffer 0.1 M pH 4 (isotonic), 15 °C, pH 4, aqueous buffer, Lactate buffer O.1M pH 4 (isotonic)), 900 µg/mL (≈ 5.05 mM). In addition, in data set [10] (water, in water (text, temperature not given)), the solubility is approximately 810 µg/mL (≈ 4.55 mM). Also, in [12], the “dose enhancement of alkylating agents” value was “marked dose enhancement leading to synergistic cytotoxic effects on tumor cells”. The 50% lethal dose (LD50) in data set [13] stood at 101 mg/kg. Moreover, the Stability result in data set [15] is recorded as “stable”; in data set [20] (0.7 mg/ml in 0.005M citrate buffer pH 4.0, 2 months at 50°C), “stable”; in data set [20] (0.7 mg/ml in 0.05M citrate buffer pH 4.0, 2 months at 50°C), “stable”; in data set [20] (0.7 mg/ml in 0.05M citrate buffer pH 4.0, at 70°C), “evidence of instability”; in [20] (0.05M citrate pH 4, compared with the other formulations stressed), “most stable formulation”; in [20] (lactate buffer, storage at 70°C after a single autoclave cycle), “unstable”. Also, the Stability result is “more stable” in [23] (acidic solutions of normal saline or solutions buffered to pH 4 using 0.05M citrate or 0.1 M lactate buffer), “unstable” in [23] (citrate buffer at pH 6) and “unstable” in [23] (phosphate buffer at pH 5.9). Further, the “Clinical signs and symptoms” value in data set [16] is “salivation, decreases in white blood cell measurements (including lymphocyte count in the dog), and decreases in red blood cell measurements”; in [17] it was “salivation, decreases in white blood cell measurements (including lymphocyte count in the dog), and decreases in red blood cell measurements”. The “direct tumor cell killing” value in data set [19] (25 to 75 mg/kg IP, mice bearing the FSaIIC fibrosarcoma) is listed as “some direct tumor cell killing was observed”. The tumor growth delay in [19] (alone, single dose, FSaIIC fibrosarcoma) turned out to be 3 days. In [24], the “increases in tumor growth delay” value is 1.6- to 5.3 fold.

Broadly, the pIC50 is −log10 of the IC50, conventionally taken in molar units. A low value points to a large IC50. The term solubility denotes the dissolved amount per volume that the medium holds. What is called LD50 is the dose at which mortality reaches 50%. Lower therefore signals a more toxic substance.
